Assay results reported in PubChem BioAssay (NCI).
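Step 1: Grow cells in 96-well plates. Step 2: Expose to compound for 48 hours at 5 concentrations. Step 3: Interpolate endpoints linearly; if unreached, use highest concentration. At the GI50, growth is halved. TGI: total growth inhibition.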

Tests used:
Assay in all cases: NCI-60 cell line screen, 48 h
[1] = tested on: MDA-MB-231 breast
[2] = tested on: CCRF-CEM leukemia
[3] = tested on: MALME-3M melanoma
[4] = tested on: MDA-MB-468 breast
[5] = tested on: OVCAR-3 ovarian
[6] = tested on: HT29 colon
[7] = tested on: PC-3 prostate
[8] = tested on: HCC-2998 colon
[9] = tested on: ACHN renal
[10] = tested on: SN12C renal
[11] = tested on: A549 NSCLC
[12] = tested on: EKVX NSCLC
[13] = tested on: HL-60(TB) leukemia
[14] = tested on: UO-31 renal
[15] = tested on: DU-145 prostate
[16] = tested on: HCT-116 colon
[17] = tested on: HCT-15 colon
[18] = tested on: SK-MEL-28 melanoma
[19] = tested on: KM12 colon
[20] = tested on: LOX IMVI melanoma
[21] = tested on: NCI-H226 lung
[22] = tested on: MOLT-4 leukemia
[23] = tested on: COLO 205 colon
[24] = tested on: HOP-92 NSCLC
[25] = tested on: SK-OV-3 ovarian
[26] = tested on: SR leukemia
[27] = tested on: UACC-257 melanoma
[28] = tested on: NCI-H522 lung
[29] = tested on: MDA-MB-435
[30] = tested on: HS 578T breast
[31] = tested on: SK-MEL-2 melanoma
[32] = tested on: U251 CNS
[33] = tested on: 786-0 renal
[34] = tested on: NCI-H23 lung
[35] = tested on: NCI-H460 lung
[36] = tested on: TK-10 renal
[37] = tested on: SK-MEL-5 melanoma
[38] = tested on: BT-549 breast
[39] = tested on: SF-268 CNS
[40] = tested on: CAKI-1 renal
[41] = tested on: T-47D breast
[42] = tested on: SNB-19 CNS
[43] = tested on: SF-539 CNS
[44] = tested on: OVCAR-8 ovarian
[45] = tested on: MCF7 breast
[46] = tested on: UACC-62 melanoma
[47] = tested on: OVCAR-5 ovarian
[48] = tested on: RXF 393 renal
[49] = tested on: HOP-62 NSCLC
[50] = tested on: SF-295 CNS
[51] = tested on: M14 melanoma
[52] = tested on: SNB-75 CNS
[53] = tested on: IGROV1 ovarian
[54] = tested on: SW-620 colon
[55] = tested on: RPMI-8226 leukemia
[56] = tested on: A498 renal
[57] = tested on: NCI/ADR-RES ovarian

Structure (SMILES): Cc1ccc(S(=O)(=O)c2nc(-c3ccccc3)oc2S(=O)(=O)CC(=O)N2CCCC2)cc1
- GI50 [1]: 1.63 µM
- TGI [1]: 3.11 µM
- GI50 [2]: 0.529 µM
- TGI [2]: 2.95 µM
- GI50 [3]: 1.55 µM
- TGI [3]: 2.95 µM
- GI50 [4]: 0.587 µM
- TGI [4]: 1.97 µM
- GI50 [5]: 1.27 µM
- TGI [5]: 2.66 µM
- GI50 [6]: 1.54 µM
- TGI [6]: 4.05 µM
- GI50 [7]: 11.8 µM
- TGI [7]: 30.7 µM
- GI50 [8]: 11.2 µM
- TGI [8]: 24.1 µM
- GI50 [9]: 1.36 µM
- TGI [9]: 2.65 µM
- GI50 [10]: 6.68 µM
- TGI [10]: 19.6 µM
- GI50 [11]: 13.1 µM
- TGI [11]: 29.1 µM
- GI50 [12]: 2.44 µM
- TGI [12]: 7.76 µM
- GI50 [13]: 0.978 µM
- TGI [13]: 3.48 µM
- GI50 [14]: 1.36 µM
- TGI [14]: 2.66 µM
- GI50 [15]: 1.63 µM
- TGI [15]: 3.37 µM
- GI50 [16]: 1.52 µM
- TGI [16]: 3.34 µM
- GI50 [17]: 1.4 µM
- TGI [17]: 2.92 µM
- GI50 [18]: 1.82 µM
- TGI [18]: 3.54 µM
- GI50 [19]: 14.9 µM
- TGI [19]: 32 µM
- GI50 [20]: 1.45 µM
- TGI [20]: 2.82 µM
- GI50 [21]: 13.3 µM
- TGI [21]: 34.7 µM
- GI50 [22]: 1.73 µM
- TGI [22]: 5.22 µM
- GI50 [23]: 1.89 µM
- TGI [23]: 4.38 µM
- GI50 [24]: 2.71 µM
- TGI [24]: 8.32 µM
- GI50 [25]: 15.6 µM
- TGI [25]: 30.5 µM
- GI50 [26]: 1.49 µM
- TGI [26]: 6.6 µM
- GI50 [27]: 1.73 µM
- TGI [27]: 3.73 µM
- GI50 [28]: 1.06 µM
- TGI [28]: 2.49 µM
- GI50 [29]: 3.08 µM
- TGI [29]: 13.8 µM
- GI50 [30]: 3.68 µM
- TGI [30]: 28.2 µM
- GI50 [31]: 13.1 µM
- TGI [31]: 26.2 µM
- GI50 [32]: 15.5 µM
- TGI [32]: 29.7 µM
- GI50 [33]: 1.45 µM
- TGI [33]: 2.93 µM
- GI50 [34]: 8.06 µM
- TGI [34]: 23.6 µM
- GI50 [35]: 7 µM
- TGI [35]: 22.5 µM
- GI50 [36]: 1.7 µM
- TGI [36]: 3.15 µM
- GI50 [37]: 12.5 µM
- TGI [37]: 25.2 µM
- GI50 [38]: 3.89 µM
- TGI [38]: 11.8 µM
- GI50 [39]: 12.2 µM
- TGI [39]: 33.2 µM
- GI50 [40]: 1.21 µM
- TGI [40]: 2.5 µM
- GI50 [41]: 1.78 µM
- TGI [41]: 4.94 µM
- GI50 [42]: 14.5 µM
- TGI [42]: 27.6 µM
- GI50 [43]: 1.54 µM
- TGI [43]: 2.91 µM
- GI50 [44]: 7.2 µM
- TGI [44]: 25.1 µM
- GI50 [45]: 1.17 µM
- TGI [45]: 2.9 µM
- GI50 [46]: 4.53 µM
- TGI [46]: 16.5 µM
- GI50 [47]: 11 µM
- TGI [47]: 23.4 µM
- GI50 [48]: 1.08 µM
- TGI [48]: 2.41 µM
- GI50 [49]: 14.4 µM
- TGI [49]: 31 µM
- GI50 [50]: 12.2 µM
- TGI [50]: 25 µM
- GI50 [51]: 1.77 µM
- TGI [51]: 4.15 µM
- GI50 [52]: 3.89 µM
- TGI [52]: 17.4 µM
- GI50 [53]: 6.54 µM
- TGI [53]: 20.8 µM
- GI50 [54]: 0.801 µM
- TGI [54]: 2.24 µM
- GI50 [55]: 2.68 µM
- TGI [55]: > 100 µM
- GI50 [56]: 11.9 µM
- TGI [56]: 24.3 µM
- GI50 [57]: 11.4 µM
- TGI [57]: 65 µM
